Test results from patent publication US20020091086A1, “Peptides that block viral infectivity and methods of use thereof” (priority 1999, published 2002).
Values joined by “and” are separate entries in the source; they are usually repeats but may differ in a detail not shown here. Equal values may be shown once. Peptide text beside a SMILES is read from it.

Experiments:
[1] = 18 day intraperitoneal toxicity in mice; type: in vivo; conditions: intraperitoneal 0.01, 0.1 and 1 g per kilo bodyweight and day, 18 days from age 6 days
Experimental: In this example, the results from several in vivo toxicology studies on small peptides administered in large doses to rodents are presented. In a first experiment, a large single dose of small peptide was delivered to mice and the toxic effects were analyzed. […] In a second experiment, several doses of varying amounts of a small peptide were delivered to mice for almost three weeks. Groups of mice (five mice in each group) were given intraperitoneal injections of GPG-NH2 (0.01, 0.1 and 1 g per kilo bodyweight and day, respectively) starting at an age of 6 days. Daily injections were continued for 18 days. […] In a similar experiment, a four week toxicology study of GPG-NH2 was performed by Scantox A/S in Denmark. GPG-NH2 was given orally to rats at doses up to 1 g per kilo bodyweight per day for twenty eight days.

[2] = in vivo uptake, distribution and elimination of 14C GPG-NH2 in rats
Experimental: Further, the in vivo uptake of small peptides was analyzed in rats. Rats were fed ^14C GPG-NH2 and, after various time points, blood, urine, and tissue samples were collected from the animals. Samples of rat urine taken eight hours after feeding and rat plasma taken 30 minutes, two hours, and eight hours after feeding were separated on a TLC plate, as shown in FIG. 7 (designated urine8, rp0.5, rp2, and rp^8, accordingly). All the tissues were kept in −20° C. after necropsy before any assay was performed. […] of the tissue samples were collected from three different locations of each organ analyzed and the organ tissue was subsequently dissolved in 250 μl of tissue solublizer (OptiSolv, LKB-Wallac) at 45° C. for four to six hours. The homogenized tissue solutions were decolorized by the addition of 50 μl of 30% H2O2 and 100 μl of isopropanol before 3 ml of 0.05M HCl acidified scintillation cocktail (Luma Gel, Lumac/3M) was added. The radioactivity was determined with a beta scintillation counter (LKB-Wallac 1218 Rack Beta). The free/unbound GPG-NH2 in the plasma was collected by precipitation with one part of plasma and two parts of ethanol followed by incubation at −70° C. for one hour and centrifugation at 20,000×g for 15 min at 4° C. Blood cell samples were diluted with PBS (in the ratio of 2 parts of blood cells to 1 part of PBS) before 10 μl of the mixture was sampled and analyzed as the tissue samples. Five to 20 μl of plasma and urine samples were directly mixed with 3 ml of Ready Safe (Beckman) fluid before quantification. The values are expressed in nCi.
The calculation of the maximum uptake was determined as follows. The total feeding was 800 μCi/kg rat body weight (160 μCi in total per animal). On the assumption that the GPG-NH2 and its metabolities were evenly distributed in the body, the GPG-NH2 present in tissues would be the average counts/g from different tissues from the total number of animals studied divided by the total number of animals and multiplied by the body weight and the factor 0.9. This factor is derived to omit the blood volume since an estimate of blood volume is roughly 10% of the average body weight. For example (from the data of animals 1-5), if the total body weight for five rats was […] and the radioactivity detected from various tissues was (35+466+495+366+331) or 1,693 nCi and the radioactivity detected from blood was (93+130) or 223 nCi and the radioactivity detected in urine was 4, 015 nCi, the maximal intake of the small peptide can be calculated as: […]
In FIG. 9, the distribution of radioactivity between blood cells, plasma protein bound, as well as, non protein bound (free) plasma radioactivity is shown. The elimination of radioactivity from the plasma fraction is depicted in FIG. 10. […] Protein bound radioactivity was assayed after precipitation with two parts of 99.5% ethanol. From the uptake and distribution data and the TLC data above, the minimal uptake of intact GPG-NH2 recovered from the plasma was calculated and, in one hour after feeding of the rats, at least 1% of fed GPG-NH2 could be recovered as protein free GPG-NH2 in the plasma.

recombinant gp120 = target: T1, recombinant gp120 (Human immunodeficiency virus type 1 group M subtype B, UniProt P03375); experiment: dialysis-based binding assay with 14C-GPG-NH2, gp120; design: species or system HIV-1; conditions: dialysis 2 days at 4° C. against 27.5 μM 14C-GPG-NH2; buffer 1.816
T1 construct: recombinant proteins p24 and gp120 (gifts from the AIDS program, NCIB); purchased AIDS program, NCIB (gift, not bought)
Experimental: A dialysis-based binding assay was conducted using a dialysis membrane with a pore size of less than 10 kD. (Slide-A-Lyzer, Pierce). Fifty microliters of a 10 μM stock of the recombinant proteins p24 and gp120 (gifts from the AIDS program, NCIB) and BSA (Sigma) were introduced into separate dialysis membranes and the proteins were dialyzed at 4° C. for 2 days against a 500 ml solution composed of 150 mM NaCl and 50 mM Tris-HCl, pH 7.4 buffer and 27.5 μM of ^14C-GPG-NH2 (Amersham Ltd. UK). Subsequently, ten or five microliter aliquots of the dialyzed p24, gp120, and BSA were removed and mixed with 3 ml of ReadySafe (Beckman) in a scintillation vial. The C^14 was then detected by scintillation counting.

[3] = tested on: HIV-1 isolate p7300 (low PI); experiment: resistant HIV-1 isolates in PBMC, p24 ELISA; type: cell-based; conditions: GPG 100 μM, 14 days post infection
[4] = tested on: HIV-1 isolate p7227 (high AZT); experiment: resistant HIV-1 isolates in PBMC, p24 ELISA; type: cell-based; conditions: GPG 100 μM, 14 days post infection
[5] = rats fed 14C GPG-NH2 800 μCi/kg, sacrificed after 4 hours, avg of animals 1-5
[6] = rats fed 14C GPG-NH2 800 μCi/kg, sacrificed after 8 hours, avg of animals 6-10
[7] = rats fed 14C GPG-NH2 800 μCi/kg, sacrificed after 8 hours, individual animals 6-10

NCC(=O)N1CCC[C@H]1C(=O)NCC(N)=O [GPG-NH2, glycyl-prolyl-glycine amide] (H-Gly-Pro-Gly-NH2)
influence on the mice compared to controls [1]: no significant influence | radioactivity in urine (used for uptake calculation) ([2]; animals 1-5, 4 hours): 4,015 nCi | radioactivity present in blood (calculated) ([2]; animals 1-5, 4 hours, body weight 207 g, factor 0.1): blood (93 + 130) * 207 * 0.1 = 4,642 nCi | radioactivity present in tissue (whole body, calculated) ([2]; animals 1-5, 4 hours, body weight 207 g, factor 0.9): (35 + 466 + 495 + 366 + 331)/5 * 207 * 0.9 = 63,240 nCi | change of radioactivity in the urine ([2]; between hours 4 and 8): double | portion of urine radioactivity that was intact GPG-NH2 ([2]; electrospray mass spectrometry of TLC spot): only a small portion | fed GPG-NH2 recovered as protein free GPG-NH2 in the plasma ([2]; one hour after feeding of the rats): at least 1% | maximal uptake ([2]; oral feeding 800 μCi/kg, animals 1-5, 4 hours): (63.24 + 4.642 + 4.015)/800 * 0.207 = 0.4342, or 43% maximal | radioactivity in Blood cells, avg [2, 5]: 93 nCi/ml or g tissue | radioactivity in Brain, avg [2, 5]: 35 nCi/ml or g tissue | radioactivity in Kidneys, avg [2, 5]: 466 nCi/ml or g tissue | radioactivity in Liver, avg [2, 5]: 495 nCi/ml or g tissue | radioactivity in Plasma, avg [2, 5]: 130 nCi/ml or g tissue | radioactivity in Spleen, avg [2, 5]: 366 nCi/ml or g tissue | radioactivity in Thymus, avg [2, 5]: 331 nCi/ml or g tissue | radioactivity in Total urine, avg [2, 5]: 4,015 nCi/ml or g tissue | radioactivity in Urine, avg [2, 5]: 5,660 nCi/ml or g tissue | radioactivity in Blood cells, avg [2, 6]: 78 nCi | radioactivity in Brain, avg [2, 6]: 30 nCi | radioactivity in Kidneys, avg [2, 6]: 415 nCi | radioactivity in Liver, avg [2, 6]: 494 nCi | radioactivity in Plasma, avg [2, 6]: 135 nCi | radioactivity in Spleen, avg [2, 6]: 293 nCi | radioactivity in Thymus, avg [2, 6]: 334 nCi | radioactivity in Total urine, avg [2, 6]: 8,426 nCi | radioactivity in Urine, avg [2, 6]: 3,525 nCi | radioactivity in Blood cells [2, 7]: 51 nCi and 72 nCi and 87 nCi and 71 nCi and 108 nCi | radioactivity in Brain [2, 7]: 43 nCi and 27 nCi and 28 nCi and 25 nCi and 29 nCi | radioactivity in Kidneys [2, 7]: 255 nCi and 488 nCi and 461 nCi and 401 nCi and 468 nCi | radioactivity in Liver [2, 7]: 537 nCi and 419 nCi and 478 nCi and 458 nCi and 578 nCi | radioactivity in Plasma [2, 7]: 138 nCi and 123 nCi and 135 nCi and 129 nCi and 148 nCi | radioactivity in Spleen [2, 7]: 307 nCi and 281 nCi and 257 nCi and 336 nCi and 285 nCi | radioactivity in Thymus [2, 7]: 340 nCi and 350 nCi and 323 nCi and 349 nCi and 311 nCi | radioactivity in Total urine [2, 7]: 6,463 nCi and 6,653 nCi and 11,173 nCi and 10,227 nCi and 7,613 nCi | radioactivity in Urine [2, 7]: 2,992 nCi and 5,040 nCi and 3,121 nCi and 4,297 nCi and 2,175 nCi | relative distribution of retained/immobilized GPG-NH2 and its metabolites in sampled tissues ([2]; rats, oral): highest in the liver followed by the kidney, followed by the spleen, followed by the thymus, followed by the brain | radioactive GPG-NH2 associated with gp120 (recombinant gp120): 1.745 μCi/ml | % reduction [3]: (100%) | HIV-1 p24 [3]: <500 pg/mL | % reduction [4]: (100%) | HIV-1 p24 [4]: <500 pg/mL
